pIC50: −log10 of the molar value. Read-outs that look alike come from different tables or passages of the source. Blank lines part the entries; values can stand above or below the compound they belong to.
Tests used:
HT-29 cells = experiment: growth inhibition of HT-29 cells, 6 days, sulforhodamine B staining; type: cell-based, human; conditions: for pIC50: HT-29, 6 days, sulforhodamine B
Protocol: The growth inhibitory effect of 5-ethoxy-2'-deoxyuridine was compared with other analogous 5-substituted-2'-deoxyuridine compounds by determining the IC50 of each compound in an assay which measured the growth inhibition of HT-29 cells. The HT-29 cells were placed in 96 well plates (2×10^4 cells per well) in RPMI 1640 with 10% added fetal bovine serum. After allowing the cells to attach overnight, several concentrations of the test compounds were added. After 6 days, cell numbers were quantitated by staining with sulforhodamine B (Skehan et al., J. Natl. Canc. Inst, 82, 1107-1112, 1990).

[1] = test system: HT-29 human carcinoma cells; experiment: in vitro clonogenic assay (cloning efficiency) with HT-29 cells, 72 h drug exposure; type: cell-based; conditions: for pIC50: read-out: IC50 for 5-fluorouracil (50% reduction of cloning efficiency)
Protocol: For assessment of the antitumor activity of 5-ethoxy-2'-deoxyuridine, an in vitro clonogenic assay was used. The assay was based on a modification of procedures first described by Puck and Marcus (Proc. Natl. Acad. Sci. (USA) 41:432-437, 1955). […] 3:225-231, 1991; A. F. Sobrero et al., J. Natl. Cancer Inst. 85:1937-1944, 1993).
HT-29 human carcinoma cells (ATCC No. HTB-38) were maintained in RPMI 1640 with 10% v/v fetal bovine serum (GIBCO) in a humidified, 5% CO2 atmosphere at 37° C. Cells were plated in 24 well plates (150 cells per well) in RPMI 1640 medium with 10% v/v dialyzed fetal bovine serum. After allowing cell attachment to proceed overnight, combinations of interferon-α (500 units/ml; Roferon-A, Roche Labs.), 5-ethoxy-2'-deoxyuridine (150 μM), in the presence of increasing concentrations of 5-fluorouracil (as specified in the Table) were added. The various agents were diluted in phosphate-buffered saline, and control wells received vehicle alone. After 72 hours, drug containing medium was removed and replaced with RPMI 1640 with 10% v/v fetal bovine serum. Cell colonies were allowed to grow for an additional 7-10 days, at which point they were stained and counted. […] Data are means of at least 3 determinations. The IC50 values for 5-fluorouracil were calculated graphically by determining the concentration of 5-fluorouracil that reduced cloning efficiency by 50% from the cloning efficiency value measured in the absence of 5-fluorouracil.

Compound: O=c1[nH]cc(F)c(=O)[nH]1 [5-FU, 5-fluorouracil]
Cloning Efficiency (% of control) ([1]; 5-FU 0.025 μM with 5-ETH 150 μM + IFN 500 u/ml, 4320 min): 89 % of control | Cloning Efficiency (% of control) ([1]; 5-FU 0.05 μM with 5-ETH 150 μM + IFN 500 u/ml, 4320 min): 81 % of control | Cloning Efficiency (% of control) ([1]; 5-FU 0.05 μM with 5-ETH 150 μM, 4320 min): 81 % of control | Cloning Efficiency (% of control) ([1]; 5-FU 0.10 μM with 5-ETH 150 μM + IFN 500 u/ml, 4320 min): 38 % of control | Cloning Efficiency (% of control) ([1]; 5-FU 0.10 μM with 5-ETH 150 μM, 4320 min): 80 % of control | Cloning Efficiency (% of control) ([1]; 5-FU 0.15 μM with 5-ETH 150 μM + IFN 500 u/ml, 4320 min): 9 % of control | Cloning Efficiency (% of control) ([1]; 5-FU 0.25 μM with 5-ETH 150 μM + IFN 500 u/ml, 4320 min): 0 % of control | Cloning Efficiency (% of control) ([1]; 5-FU 0.25 μM with 5-ETH 150 μM, 4320 min): 60 % of control | Cloning Efficiency (% of control) ([1]; 5-FU 0.25 μM with IFN 500 u/ml, 4320 min): 97 % of control | Cloning Efficiency (% of control) ([1]; 5-FU 0.50 μM with 5-ETH 150 μM, 4320 min): 38 % of control | Cloning Efficiency (% of control) ([1]; 5-FU 0.50 μM with IFN 500 u/ml, 4320 min): 83 % of control | Cloning Efficiency (% of control) ([1]; 5-FU 1.0 μM with 5-ETH 150 μM, 4320 min): 13 % of control | Cloning Efficiency (% of control) ([1]; 5-FU 1.0 μM with IFN 500 u/ml, 4320 min): 56 % of control | Cloning Efficiency (% of control) ([1]; 5-FU 1.5 μM with 5-ETH 150 μM, 4320 min): 4 % of control | Cloning Efficiency (% of control) ([1]; 5-FU 1.5 μM with IFN 500 u/ml, 4320 min): 18 % of control | Cloning Efficiency (% of control) ([1]; 5-FU 2.0 μM with IFN 500 u/ml, 4320 min): 8 % of control | Cloning Efficiency (% of control) ([1]; 5-FU 3.0 μM with IFN 500 u/ml): 1 % of control | pIC50 ([1]; Homo sapiens, HT-29, 72 h, 5-FU alone (CONT, PBS)): 5.70 | pIC50 ([1]; Homo sapiens, HT-29, 72 h, 5-FU with 5-ETH 150 μM + IFN 500 u/ml): 7.10 | pIC50 ([1]; Homo sapiens, HT-29, 72 h, 5-FU with 5-ETH 150 μM): 6.46 | pIC50 ([1]; Homo sapiens, HT-29, 72 h, 5-FU with IFN 500 u/ml): 5.96 | activity at 0.25 µM ([1]; Homo sapiens, HT-29, 72 h, 5-FU 0.25 μM alone (CONT, PBS), read-out: Cloning Efficiency (% of control)): 104% | activity at 0.5 µM ([1]; Homo sapiens, HT-29, 72 h, 5-FU 0.50 μM alone (CONT, PBS), read-out: Cloning Efficiency (% of control)): 93% | activity at 1 µM ([1]; Homo sapiens, HT-29, 72 h, 5-FU 1.0 μM alone (CONT, PBS), read-out: Cloning Efficiency (% of control)): 87% | activity at 1.5 µM ([1]; Homo sapiens, HT-29, 72 h, 5-FU 1.5 μM alone (CONT, PBS), read-out: Cloning Efficiency (% of control)): 60% | activity at 2 µM ([1]; Homo sapiens, HT-29, 72 h, 5-FU 2.0 μM alone (CONT, PBS), read-out: Cloning Efficiency (% of control)): 55% | activity at 3 µM ([1]; Homo sapiens, HT-29, 72 h, 5-FU 3.0 μM alone (CONT, PBS), read-out: Cloning Efficiency (% of control)): 27% | activity at 4 µM ([1]; Homo sapiens, HT-29, 72 h, 5-FU 4.0 μM alone (CONT, PBS), read-out: Cloning Efficiency (% of control)): 5%

Compound: CCOc1cn([C@H]2C[C@H](O)[C@@H](CO)O2)c(=O)[nH]c1=O [5-ethoxy-2'-deoxyuridine]
activity at 150 µM ([1]; Homo sapiens, HT-29, 72 h, 5-ETH 150 μM alone, no 5-FU (0), read-out: Cloning Efficiency (% of control)): 89% | toxicity relative to the ethyl analog (HT-29 cells; HT-29 cytotoxicity, fraction of the toxicity of the ethyl analog): about 1/300 | toxicity relative to the methyloxy analog (HT-29 cells; HT-29 cytotoxicity, fraction of the toxicity of the methyloxy analog): about 1/27 | toxicity relative to the propyloxy analog (HT-29 cells; HT-29 cytotoxicity, fraction of the toxicity of the propyloxy analog): about 1/2 | pIC50 (HT-29 cells; Homo sapiens, 144 h): 3.12 | toxicity compared with many other prior art 5-substituted-2'-deoxyuridines that have been tested (HT-29 cells; statement in words): less toxic

Continued, values first:

pIC50 (HT-29 cells): < 2.52
Compound: 5-propynyloxy-2'-deoxyuridine

pIC50 (HT-29 cells; Homo sapiens, 144 h): 5.60
Compound: CCc1cn([C@H]2C[C@H](O)[C@@H](CO)O2)c(=O)[nH]c1=O [5-ethyl-2'-deoxyuridine]

pIC50 (HT-29 cells; Homo sapiens, 144 h): 4.55
Compound: COc1cn([C@H]2C[C@H](O)[C@@H](CO)O2)c(=O)[nH]c1=O [5-methoxy-21-deoxyuridine]

pIC50 (HT-29 cells; Homo sapiens, 144 h): 3.49
Compound: CCCOc1cn([C@H]2C[C@H](O)[C@@H](CO)O2)c(=O)[nH]c1=O [5-propyloxy-2'-deoxyuridine]

From patent publication US5545629A, “5-ethoxy-2'-deoxyuridines” (Montefiore Medical Center, priority 1994, dated 1996)
